# PubChem BioAssay (NCI)
#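 Briefly, cells in 96-well plates were exposed to five compound concentrations for 48 h, and endpoints were estimated by linear interpolation. TGI: concentration producing complete growth inhibition.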
# Key:
# Assay in all cases: NCI tumour cell line growth inhibition, 48 h
# 786-0 renal = test system: 786-0 renal
# A498 renal = test system: A498 renal
# A549 NSCLC = test system: A549 NSCLC
# ACHN renal = test system: ACHN renal
# BT-549 breast = test system: BT-549 breast
# CAKI-1 renal = test system: CAKI-1 renal
# CCRF-CEM leukemia = test system: CCRF-CEM leukemia
# COLO 205 colon = test system: COLO 205 colon
# DU-145 prostate = test system: DU-145 prostate
# EKVX NSCLC = test system: EKVX NSCLC
# HCC-2998 colon = test system: HCC-2998 colon
# HCT-116 colon = test system: HCT-116 colon
# HCT-15 colon = test system: HCT-15 colon
# HL-60(TB) leukemia = test system: HL-60(TB) leukemia
# HOP-62 NSCLC = test system: HOP-62 NSCLC
# HOP-92 NSCLC = test system: HOP-92 NSCLC
# HS 578T breast = test system: HS 578T breast
# HT29 colon = test system: HT29 colon
# IGROV1 ovarian = test system: IGROV1 ovarian
# K-562 leukemia = test system: K-562 leukemia
# KM12 colon = test system: KM12 colon
# LOX IMVI melanoma = test system: LOX IMVI melanoma
# M14 melanoma = test system: M14 melanoma
# MALME-3M melanoma = test system: MALME-3M melanoma
# MCF7 breast = test system: MCF7 breast
# MDA-MB-231 breast = test system: MDA-MB-231 breast
# MDA-MB-435 = test system: MDA-MB-435
# MDA-N = test system: MDA-N
# MOLT-4 leukemia = test system: MOLT-4 leukemia
# NCI-H226 lung = test system: NCI-H226 lung
# NCI-H23 lung = test system: NCI-H23 lung
# NCI-H460 lung = test system: NCI-H460 lung
# NCI-H522 lung = test system: NCI-H522 lung
# NCI/ADR-RES ovarian = test system: NCI/ADR-RES ovarian
# OVCAR-3 ovarian = test system: OVCAR-3 ovarian
# OVCAR-4 ovarian = test system: OVCAR-4 ovarian
# OVCAR-5 ovarian = test system: OVCAR-5 ovarian
# OVCAR-8 ovarian = test system: OVCAR-8 ovarian
# PC-3 prostate = test system: PC-3 prostate
# RXF 393 renal = test system: RXF 393 renal
# SF-268 CNS = test system: SF-268 CNS
# SF-295 CNS = test system: SF-295 CNS
# SK-MEL-28 melanoma = test system: SK-MEL-28 melanoma
# SK-MEL-5 melanoma = test system: SK-MEL-5 melanoma
# SK-OV-3 ovarian = test system: SK-OV-3 ovarian
# SN12C renal = test system: SN12C renal
# SNB-19 CNS = test system: SNB-19 CNS
# SNB-75 CNS = test system: SNB-75 CNS
# SR leukemia = test system: SR leukemia
# SW-620 colon = test system: SW-620 colon
# T-47D breast = test system: T-47D breast
# TK-10 renal = test system: TK-10 renal
# U251 CNS = test system: U251 CNS
# UACC-257 melanoma = test system: UACC-257 melanoma
# UACC-62 melanoma = test system: UACC-62 melanoma
# UO-31 renal = test system: UO-31 renal
# RPMI-8226 leukemia = test system: RPMI-8226 leukemia
# SF-539 CNS = test system: SF-539 CNS
# SK-MEL-2 melanoma = test system: SK-MEL-2 melanoma
structure (smiles),measurement,setting,value
C(/C=C(\Nc1ccccc1)C12CC3CC(CC(C3)C1)C2)=Nc1ccccc1,TGI,786-0 renal,29.3 µM
same,TGI,A498 renal,> 100 µM
same,TGI,A549 NSCLC,73.3 µM
same,TGI,ACHN renal,26.4 µM
same,TGI,BT-549 breast,31.6 µM
same,TGI,CAKI-1 renal,29.5 µM
same,TGI,CCRF-CEM leukemia,8.38 µM
same,TGI,COLO 205 colon,32.6 µM
same,TGI,DU-145 prostate,56.7 µM
same,TGI,EKVX NSCLC,39.4 µM
same,TGI,HCC-2998 colon,33.2 µM
same,TGI,HCT-116 colon,27 µM
same,TGI,HCT-15 colon,28 µM
same,TGI,HL-60(TB) leukemia,32.1 µM
same,TGI,HOP-62 NSCLC,45.7 µM
same,TGI,HOP-92 NSCLC,60.7 µM
same,TGI,HS 578T breast,> 100 µM
same,TGI,HT29 colon,27.6 µM
same,TGI,IGROV1 ovarian,36.5 µM
same,TGI,K-562 leukemia,35.1 µM
same,TGI,KM12 colon,35.2 µM
same,TGI,LOX IMVI melanoma,28.6 µM
same,TGI,M14 melanoma,32.6 µM
same,TGI,MALME-3M melanoma,36.9 µM
same,TGI,MCF7 breast,59.4 µM
same,TGI,MDA-MB-231 breast,34.1 µM
same,TGI,MDA-MB-435,34.3 µM
same,TGI,MDA-N,30.9 µM
same,TGI,MOLT-4 leukemia,22.9 µM
same,TGI,NCI-H226 lung,38.5 µM
same,TGI,NCI-H23 lung,36.8 µM
same,TGI,NCI-H460 lung,62.6 µM
same,TGI,NCI-H522 lung,24.3 µM
same,TGI,NCI/ADR-RES ovarian,42.5 µM
same,TGI,OVCAR-3 ovarian,21.1 µM
same,TGI,OVCAR-4 ovarian,48.8 µM
same,TGI,OVCAR-5 ovarian,34.5 µM
same,TGI,OVCAR-8 ovarian,49.8 µM
same,TGI,PC-3 prostate,33.1 µM
same,TGI,RXF 393 renal,35.4 µM
same,TGI,SF-268 CNS,41.1 µM
same,TGI,SF-295 CNS,36.5 µM
same,TGI,SK-MEL-28 melanoma,47.1 µM
same,TGI,SK-MEL-5 melanoma,28 µM
same,TGI,SK-OV-3 ovarian,46.5 µM
same,TGI,SN12C renal,36.2 µM
same,TGI,SNB-19 CNS,33.9 µM
same,TGI,SNB-75 CNS,46.4 µM
same,TGI,SR leukemia,30.4 µM
same,TGI,SW-620 colon,41.7 µM
same,TGI,T-47D breast,99.6 µM
same,TGI,TK-10 renal,45.4 µM
same,TGI,U251 CNS,31.7 µM
same,TGI,UACC-257 melanoma,73.3 µM
same,TGI,UACC-62 melanoma,25.7 µM
same,TGI,UO-31 renal,29.3 µM
NCCCN1CCN(CCCNc2ccc3nnn4c5ccccc5c(=O)c2c34)CC1,TGI,786-0 renal,33.1 µM
same,TGI,A498 renal,40.6 µM
same,TGI,A549 NSCLC,> 100 µM
same,TGI,ACHN renal,73.7 µM
same,TGI,BT-549 breast,22.6 µM
same,TGI,CAKI-1 renal,59.2 µM
same,TGI,CCRF-CEM leukemia,35.7 µM
same,TGI,COLO 205 colon,19.4 µM
same,TGI,DU-145 prostate,57.6 µM
same,TGI,EKVX NSCLC,41.1 µM
same,TGI,HCC-2998 colon,29.4 µM
same,TGI,HCT-116 colon,37.7 µM
same,TGI,HCT-15 colon,> 100 µM
same,TGI,HL-60(TB) leukemia,> 100 µM
same,TGI,HOP-62 NSCLC,> 100 µM
same,TGI,HOP-92 NSCLC,96.6 µM
same,TGI,HS 578T breast,81.8 µM
same,TGI,HT29 colon,50.3 µM
same,TGI,IGROV1 ovarian,33.9 µM
same,TGI,K-562 leukemia,> 100 µM
same,TGI,LOX IMVI melanoma,26.8 µM
same,TGI,M14 melanoma,38.4 µM
same,TGI,MALME-3M melanoma,39.1 µM
same,TGI,MCF7 breast,74.7 µM
same,TGI,MDA-MB-231 breast,29.1 µM
same,TGI,MDA-MB-435,60.1 µM
same,TGI,MDA-N,31 µM
same,TGI,MOLT-4 leukemia,> 100 µM
same,TGI,NCI-H23 lung,33.3 µM
same,TGI,NCI-H460 lung,58.1 µM
same,TGI,NCI-H522 lung,27.1 µM
same,TGI,NCI/ADR-RES ovarian,> 100 µM
same,TGI,OVCAR-3 ovarian,> 100 µM
same,TGI,OVCAR-4 ovarian,33.1 µM
same,TGI,OVCAR-5 ovarian,> 100 µM
same,TGI,OVCAR-8 ovarian,> 100 µM
same,TGI,PC-3 prostate,35.5 µM
same,TGI,RPMI-8226 leukemia,> 100 µM
same,TGI,SF-268 CNS,75 µM
same,TGI,SF-295 CNS,45.2 µM
same,TGI,SF-539 CNS,36.2 µM
same,TGI,SK-MEL-2 melanoma,36.1 µM
same,TGI,SK-MEL-28 melanoma,> 100 µM
same,TGI,SK-MEL-5 melanoma,32.1 µM
same,TGI,SK-OV-3 ovarian,> 100 µM
same,TGI,SN12C renal,30.7 µM
same,TGI,SNB-19 CNS,46.4 µM
same,TGI,SNB-75 CNS,48.3 µM
same,TGI,SR leukemia,> 100 µM
same,TGI,SW-620 colon,> 100 µM
same,TGI,T-47D breast,> 100 µM
same,TGI,TK-10 renal,> 100 µM
same,TGI,U251 CNS,> 100 µM
same,TGI,UACC-257 melanoma,> 100 µM
same,TGI,UACC-62 melanoma,33.7 µM
same,TGI,UO-31 renal,90.7 µM
